Reference: patent US11332485B2, “Penicillin-binding protein inhibitors” (priority 2017, dated 2022)

Key:
[1] = system: E. coli DH5α/pLBII-CTX-M15; assay: Broth microdilution MIC assay, engineered strain producing CTX-M15; type: cell-based, Escherichia coli; details: Escherichia coli, read-out: E. coli DH5α/pLBII-CTX-M15 Microbiological Activity (MIC)
Method in brief: (§1)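 CLSI broth microdilution in cation-supplemented Mueller-Hinton broth, 2-fold compound dilutions, 5×10^5 CFU/mL inoculum, 16-20 h at 37° C, MIC read visually as lowest concentration without growth. E. coli DH5α carries CTX-M15 on pLBII under Lac promoter, or empty pLBII as control.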

E. coli DH5α/pLBII = assay: Broth microdilution MIC assay, empty vector control strain; type: cell-based; details: Escherichia coli, read-out: E. coli DH5α/pLBII Microbiological Activity (MIC)
Method in brief: as §1

[2] = system: hyper-permeable E. coli 901C; assay: Broth microdilution MIC assay; type: cell-based; details: Escherichia coli, read-out: E. coli 901C MIC
Method in brief: (§2)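 Per CLSI: log-phase cultures (3-5 h, 37° C) seeded at 5×10^5 CFU/mL into cation-supplemented Mueller-Hinton broth containing 2-fold compound dilutions. After 16-20 h at 37° C, MIC taken visually as lowest growth-free well, for S. aureus ATCC 29213 and E. coli 901C.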

S. aureus ATCC 29213 = assay: Broth microdilution MIC assay; type: cell-based; details: Staphylococcus aureus, ATCC29213; broth microdilution, 16-20 hours at 37° C.; read-out: S. aureus 29213 MIC
Method in brief: as §2

[3] = target: T1, PBP3 from Escherichia coli (Escherichia coli, UniProt P0AD68); assay: Fluorescence polarization competition binding assay with Bocillin-FL
T1 construct: made in house
T1 sequence (P0AD68 1-577): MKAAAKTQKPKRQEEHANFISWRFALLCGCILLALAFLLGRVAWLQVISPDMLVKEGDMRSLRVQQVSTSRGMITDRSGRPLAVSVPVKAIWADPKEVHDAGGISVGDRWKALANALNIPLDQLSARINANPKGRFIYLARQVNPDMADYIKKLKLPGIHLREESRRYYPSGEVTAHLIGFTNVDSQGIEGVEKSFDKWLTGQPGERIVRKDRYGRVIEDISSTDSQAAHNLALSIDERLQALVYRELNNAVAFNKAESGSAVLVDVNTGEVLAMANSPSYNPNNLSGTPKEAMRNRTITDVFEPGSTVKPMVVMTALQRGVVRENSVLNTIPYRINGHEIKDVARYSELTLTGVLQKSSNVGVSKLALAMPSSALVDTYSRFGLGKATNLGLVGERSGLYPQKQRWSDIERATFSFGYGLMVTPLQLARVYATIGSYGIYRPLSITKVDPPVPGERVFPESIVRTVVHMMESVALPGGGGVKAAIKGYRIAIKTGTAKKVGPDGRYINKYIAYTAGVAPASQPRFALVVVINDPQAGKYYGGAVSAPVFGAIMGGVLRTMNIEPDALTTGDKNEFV
Method in brief: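 Fluorescence polarization competition assay with Bocillin-FL at 0.1 μM final and purified E. coli PBP3 at 1.5 μM final in 50 mM Hepes pH 8.0, 300 mM NaCl, 5% glycerol. Inhibitor preincubated with PBP3 for 30 min before probe addition; FP then read continuously for 60 min. Potency reported in binned categories.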

[4] = target: T2, PBP1b from Escherichia coli (Escherichia coli, UniProt P02919); assay: Radioligand competition binding assay with 14C-labeled boronic acid probe (Example 96); details: 14C-labeled probe 96 at 20 μM, PBP 0.1 μM; read-out: E. coli K12 PBP1b EC50
T2 construct: made in house
T2 sequence (P02919 whole entry): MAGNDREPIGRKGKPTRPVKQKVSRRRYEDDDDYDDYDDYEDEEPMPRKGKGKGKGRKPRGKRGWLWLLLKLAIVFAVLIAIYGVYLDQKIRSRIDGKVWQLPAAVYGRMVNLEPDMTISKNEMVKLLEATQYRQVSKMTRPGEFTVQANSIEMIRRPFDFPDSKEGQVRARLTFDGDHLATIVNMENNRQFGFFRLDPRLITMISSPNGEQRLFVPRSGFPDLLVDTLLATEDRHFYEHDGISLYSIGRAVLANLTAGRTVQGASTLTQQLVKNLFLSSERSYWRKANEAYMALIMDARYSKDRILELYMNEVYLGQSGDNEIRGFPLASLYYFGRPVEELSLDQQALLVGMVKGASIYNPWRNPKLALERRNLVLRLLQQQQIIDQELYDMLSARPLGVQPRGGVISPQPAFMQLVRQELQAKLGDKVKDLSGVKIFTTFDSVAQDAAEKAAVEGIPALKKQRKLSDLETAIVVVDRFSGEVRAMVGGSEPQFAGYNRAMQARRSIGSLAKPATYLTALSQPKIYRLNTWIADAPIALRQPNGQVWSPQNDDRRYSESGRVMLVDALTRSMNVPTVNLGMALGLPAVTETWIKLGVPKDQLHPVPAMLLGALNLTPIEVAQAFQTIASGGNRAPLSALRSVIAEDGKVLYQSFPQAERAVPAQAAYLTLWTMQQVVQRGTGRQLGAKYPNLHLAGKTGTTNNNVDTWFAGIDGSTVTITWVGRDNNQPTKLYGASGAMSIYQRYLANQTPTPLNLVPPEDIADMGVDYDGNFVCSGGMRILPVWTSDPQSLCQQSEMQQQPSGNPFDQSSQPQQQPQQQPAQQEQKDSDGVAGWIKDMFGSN
Text: (§3) To determine the ability of boronic acid-based test PBP inhibitors to bind Penicillin Binding Proteins (PBPs), a radio-labelled boronic acid PBP inhibitor (Example 96) was used in competition binding assays to determine boronic acid PBP inhibitor binding to PBP1a or PBP1b from Escherichia coli. PBP1a and PBP1b were purified as described previously (Bertsche, U.; et al., J. Biol. Chem. 2005, 280 (45), 38096-38101; Born, P.; et al., J Biol. Chem. 2006. 281 (37), 26985-26993). To establish assay conditions for competition binding, an enzyme titration/saturation binding experiment was performed. Saturation binding was performed in a buffer comprised of 20 mM Tris (pH 7.5), 500 mM NaCl and 0.1% (v/v) TritonX-100, with PBP1a/PBP1b at a final concentration of 0.1 μM and 96 at final concentrations ranging from 0-100 μM. Mixtures were incubated for 60 minutes, then applied to Zeba Spin Desalting columns or plates (ThermoFisher Scientific) and centrifuged at 1000-1500×g for 2 minutes. The flow through, containing PBP bound with 96, was recovered and 100 μL mixed with 5 mL of UltimaGold liquid scintillation cocktail (Perkin Elmer), and the radioactivity counted using a Beckman Coulter LS 6500 Multipurpose scintillation counter. PBP binding of 96 approached saturation at 20 μM of ^14C-labeled probe. The competition binding assay was validated using the beta-lactam ampicillin, with 96 at a final concentration of 20 μM, PBP1a/PBP1b at a final concentration of 0.1 μM. PBP1a/PBP1b was incubated with ampicillin in a 96-well microplate for 60 minutes, then 96 was added and the mixtures incubated for an additional 60 minutes. The mixtures were then applied to Zeba Spin desalting plates and centrifuged at 1000×g for 2 minutes. The flow through was recovered and 100 μl mixed with 5 ml of UltimaGold liquid scintillation cocktail and the radioactivity counted. Ampicillin inhibited binding of 96 with an EC50 (the concentration of inhibitor required to reduce binding of 96 by 50%) of less than 0.5 μM. Binding assays with boronic acid PBP inhibitors were performed in an identical fashion. The potency of boronic acid PBP inhibitors was reported as the EC50 value.
(§4) Representative results are shown in Table 5, where A represents a potency of >100 μM, B represents a potency between 10 μM and 100 μM inclusive, and C represents a potency of <10 μM. NT=Not Tested.

[5] = target: T3, PBP1a from Escherichia coli (Escherichia coli, UniProt P02918); assay: as above; details: 14C-labeled probe 96 at 20 μM, PBP 0.1 μM; read-out: E. coli K12 PBP1a EC50
T3 construct: made in house
T3 sequence (P02918 whole entry): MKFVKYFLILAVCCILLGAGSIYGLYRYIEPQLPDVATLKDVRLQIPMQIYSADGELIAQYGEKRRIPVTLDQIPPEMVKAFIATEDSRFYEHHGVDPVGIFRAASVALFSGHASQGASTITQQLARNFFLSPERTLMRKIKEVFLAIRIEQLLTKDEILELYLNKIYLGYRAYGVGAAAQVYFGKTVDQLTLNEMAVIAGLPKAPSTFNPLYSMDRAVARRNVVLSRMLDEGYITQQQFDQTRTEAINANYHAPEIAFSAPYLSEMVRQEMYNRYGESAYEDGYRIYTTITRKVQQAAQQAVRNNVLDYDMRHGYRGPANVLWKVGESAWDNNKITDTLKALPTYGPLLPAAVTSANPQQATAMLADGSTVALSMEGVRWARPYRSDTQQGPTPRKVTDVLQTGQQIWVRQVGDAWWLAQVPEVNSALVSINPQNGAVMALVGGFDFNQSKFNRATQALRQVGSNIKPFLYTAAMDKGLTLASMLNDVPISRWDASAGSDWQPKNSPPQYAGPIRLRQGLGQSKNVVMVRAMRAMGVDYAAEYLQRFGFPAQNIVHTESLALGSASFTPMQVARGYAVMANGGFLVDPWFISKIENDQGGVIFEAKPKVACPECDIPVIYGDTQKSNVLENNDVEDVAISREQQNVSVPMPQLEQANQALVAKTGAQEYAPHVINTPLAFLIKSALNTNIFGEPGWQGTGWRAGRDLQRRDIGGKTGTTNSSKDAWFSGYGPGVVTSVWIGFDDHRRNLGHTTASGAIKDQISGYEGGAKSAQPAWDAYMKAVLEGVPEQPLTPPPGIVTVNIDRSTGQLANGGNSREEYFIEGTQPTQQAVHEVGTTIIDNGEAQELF
Text: as §3, §4

Work on `Nc1nc(C(NC(=O)N2CCN(CC3CC3)C(=O)C2=O)C(=O)N[C@H]2Cc3cccc(C(=O)O)c3OB2O)cs1` (stereo partly drawn) [Example 67, (3R)-3-(2-(2-aminothiazol-4-yl)-2-(4-(cyclopropylmethyl)-2,3-dioxopiperazine-1-carboxamido)acetamido)-2-hydroxy-3,4-dihydro-2H-benzo[e][1,2]oxaborinine-8-carboxylic acid] yielded an MIC [1] of 32 to 64 µg/mL, an MIC (E. coli DH5α/pLBII) of 32 to 64 µg/mL and an MIC [2] of under 64 µg/mL. It also gave an MIC (S. aureus ATCC 29213) of 64 to 128 µg/mL, an EC50 [3] of 30 to 500 µM and an EC50 [4] of under 10 µM.

With `CCN1CCN(C(=O)N[C@H](C(=O)N[C@H]2Cc3cccc(C(=O)O)c3OB2O)[C@H](O)CO)C(=O)C1=O` [Example 73, (R)-3-((2S,3S)-2-(4-ethyl-2,3-dioxopiperazine-1-carboxamido)-3,4-dihydroxybutanamido)-2-hydroxy-3,4-dihydro-2H-benzo[e][1,2]oxaborinine-8-carboxylic acid] the MIC [1] was over 512 µg/mL, the MIC (E. coli DH5α/pLBII) was over 512 µg/mL and the MIC [2] was over 128 µg/mL. It also gave an MIC (S. aureus ATCC 29213) of over 128 µg/mL, an EC50 [3] of over 500 µM and an EC50 [4] of over 100 µM.

In the case of `CCN1CCN(C(=O)NC(Cc2ccccc2)C(=O)N[C@H]2Cc3cccc(C(=O)O)c3OB2O)C(=O)C1=O` (stereo partly drawn) [Example 79, (3R)-3-(2-(4-ethyl-2,3-dioxopiperazine-1-carboxamido)-3-phenylpropanamido)-2-hydroxy-3,4-dihydro-2H-benzo[e][1,2]oxaborinine-8-carboxylic acid], the MIC [2] is reported as under 64 µg/mL, the MIC (S. aureus ATCC 29213) is reported as under 64 µg/mL and the EC50 [3] is reported as 30 to 500 µM. The EC50 [4] was under 10 µM.

For `CCN1CCN(C(=O)N[C@@H](C(=O)N[C@H]2Cc3cccc(C(=O)O)c3OB2O)C(C)C)C(=O)C1=O` [Example 78, (R)-3-((R)-2-(4-ethyl-2,3-dioxopiperazine-1-carboxamido)-3-methylbutanamido)-2-hydroxy-3,4-dihydro-2H-benzo[e][1,2]oxaborinine-8-carboxylic acid], the MIC [1] was 32 to 64 µg/mL, the MIC (E. coli DH5α/pLBII) was 32 to 64 µg/mL and the MIC [2] was under 64 µg/mL. The MIC (S. aureus ATCC 29213) was 64 to 128 µg/mL, the EC50 [3] was under 30 µM and the EC50 [4] was under 10 µM.

In the case of `CCN1CCN(CC(=O)NC(C(=O)N[C@H]2Cc3cccc(C(=O)O)c3OB2O)c2csc(N)n2)C(=O)C1=O` (stereo partly drawn) [Example 45, (3R)-3-(2-(2-aminothiazol-4-yl)-2-(2-(4-ethyl-2,3-dioxopiperazin-1-yl)acetamido)acetamido)-2-hydroxy-3,4-dihydro-2H-benzo[e][1,2]oxaborinine-8-carboxylic acid], the MIC [1] is reported as 32 to 64 µg/mL, the MIC (E. coli DH5α/pLBII) is reported as 32 to 64 µg/mL and the MIC [2] is reported as under 64 µg/mL. It also gave an MIC (S. aureus ATCC 29213) of over 128 µg/mL, an EC50 [3] of 30 to 500 µM and an EC50 [5] of under 10 µM.

Work on `C[C@@H](O)[C@@H](NC(=O)N1CCN(CCF)C(=O)C1=O)C(=O)N[C@H]1Cc2cccc(C(=O)O)c2OB1O` [Example 91, (R)-3-((2R,3R)-2-(4-(2-fluoroethyl)-2,3-dioxopiperazine-1-carboxamido)-3-hydroxybutanamido)-2-hydroxy-3,4-dihydro-2H-benzo[e][1,2]oxaborinine-8-carboxylic acid] yielded an MIC [1] of 8 to 16 µg/mL, an MIC [2] of under 64 µg/mL and an MIC (S. aureus ATCC 29213) of over 128 µg/mL. It also gave an EC50 [3] of over 500 µM and an EC50 [4] of under 10 µM.

Work on `CS(=O)(=O)N1CCN(C(=O)NC(C(=O)N[C@H]2Cc3cccc(C(=O)O)c3OB2O)c2csc(N)n2)C1=O` (stereo partly drawn) [Example 20, (3R)-3-(2-(2-aminothiazol-4-yl)-2-(3-(methylsulfonyl)-2-oxoimidazolidine-1-carboxamido)acetamido)-2-hydroxy-3,4-dihydro-2H-benzo[e][1,2]oxaborinine-8-carboxylic acid] yielded an MIC [1] of 32 to 64 µg/mL, an MIC (E. coli DH5α/pLBII) of 32 to 64 µg/mL and an MIC [2] of under 64 µg/mL. The MIC (S. aureus ATCC 29213) was 64 to 128 µg/mL, the EC50 [3] was 30 to 500 µM and the EC50 [5] was under 10 µM.

For `CCN1CCN(C(=O)N[C@@H](C(=O)N[C@H]2Cc3cccc(C(=O)O)c3OB2O)[C@@H](C)O)C(=O)C1=O` [Example 48, (R)-3-((2R,3R)-2-(4-Ethyl-2,3-dioxopiperazine-1-carboxamido)-3-hydroxy-butanamido)-2-hydroxy-3,4-dihydro-2H-benzo[e][1,2]oxaborinine-8-carboxylic acid], the MIC [1] was 8 to 16 µg/mL, the MIC (E. coli DH5α/pLBII) was 8 to 16 µg/mL and the MIC [2] was under 64 µg/mL. The MIC (S. aureus ATCC 29213) was over 128 µg/mL, the EC50 [3] was 30 to 500 µM and the EC50 [5] was under 10 µM.
